Measurements reported in ChEMBL document CHEMBL1201862, “PubChem BioAssay data set” (2004).
Active and inactive are the calls of the source.

Tests used:
[1] = target: T1, Rac GTPase-activating protein 1 (Homo sapiens, UniProt Q9H0H5); experiment: MgcRacGAP GTPase-activating activity inhibitors, confirmation, biochemical, ADP Hunter fluorescence, primary and confirmatory (AID 624330); assay type: functional
T1 sequence (Q9H0H5 whole entry): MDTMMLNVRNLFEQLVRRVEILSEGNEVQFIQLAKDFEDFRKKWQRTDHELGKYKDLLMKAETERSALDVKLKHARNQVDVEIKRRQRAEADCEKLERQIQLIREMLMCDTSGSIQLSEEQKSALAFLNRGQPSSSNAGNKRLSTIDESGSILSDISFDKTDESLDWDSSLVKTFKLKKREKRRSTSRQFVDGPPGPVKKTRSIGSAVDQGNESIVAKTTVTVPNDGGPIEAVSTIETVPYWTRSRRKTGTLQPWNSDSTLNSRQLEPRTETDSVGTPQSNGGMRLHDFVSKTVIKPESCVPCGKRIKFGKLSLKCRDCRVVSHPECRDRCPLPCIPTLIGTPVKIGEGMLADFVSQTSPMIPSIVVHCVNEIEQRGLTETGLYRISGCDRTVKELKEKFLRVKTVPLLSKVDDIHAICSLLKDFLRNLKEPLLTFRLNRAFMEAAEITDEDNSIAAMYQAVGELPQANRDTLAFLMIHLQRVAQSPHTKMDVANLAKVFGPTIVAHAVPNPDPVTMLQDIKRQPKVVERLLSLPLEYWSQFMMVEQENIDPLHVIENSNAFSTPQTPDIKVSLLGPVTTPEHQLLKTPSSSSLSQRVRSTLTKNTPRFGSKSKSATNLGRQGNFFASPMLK

[2] = HEp-2 cell cytotoxicity, dose response, cytotoxicity control for RSV inhibitor project, HTS (AID 2410); assay type: functional; conditions: human respiratory syncytial virus
cells [3] = assay type: functional, cell-based
cells [4] = assay type: functional, cell-based; remark: listed apart in the source
[5] = target: T2, Polyadenylate-binding protein 1 (Homo sapiens, UniProt P11940); experiment: PABP1 MLLE–PAM2 binding inhibitor potency, dose response, biochemical, fluorescence polarization, FITC-PAM2 peptide (AID 602259); assay type: functional; conditions: read-out: IC50_Mean
[6] = target: T2, Polyadenylate-binding protein 1; experiment: PABP1 MLLE–PAM2 interaction inhibitors, dose response, miRNA deadenylation inhibitor project, biochemical, fluorescence polarization, Cy5-PAM2 peptide, secondary (AID 602260); assay type: functional; conditions: read-out: IC50_Mean
[7] = cytotoxicity in HEK-293T cells, dose response, cytotoxicity control for BCR NF-kB inhibitor project, luminescence, B-cell screen hits (AID 489021); assay type: functional, cell-based;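 note: HEK-293T cells carrying an NF-kB luciferase reporter; cells exposed to compound for about 14 hours before viability readout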
Protein skinhead-1 = target: T3, Protein skinhead-1 (Caenorhabditis elegans, UniProt P34707); assay type: functional
T3 sequence (P34707 whole entry): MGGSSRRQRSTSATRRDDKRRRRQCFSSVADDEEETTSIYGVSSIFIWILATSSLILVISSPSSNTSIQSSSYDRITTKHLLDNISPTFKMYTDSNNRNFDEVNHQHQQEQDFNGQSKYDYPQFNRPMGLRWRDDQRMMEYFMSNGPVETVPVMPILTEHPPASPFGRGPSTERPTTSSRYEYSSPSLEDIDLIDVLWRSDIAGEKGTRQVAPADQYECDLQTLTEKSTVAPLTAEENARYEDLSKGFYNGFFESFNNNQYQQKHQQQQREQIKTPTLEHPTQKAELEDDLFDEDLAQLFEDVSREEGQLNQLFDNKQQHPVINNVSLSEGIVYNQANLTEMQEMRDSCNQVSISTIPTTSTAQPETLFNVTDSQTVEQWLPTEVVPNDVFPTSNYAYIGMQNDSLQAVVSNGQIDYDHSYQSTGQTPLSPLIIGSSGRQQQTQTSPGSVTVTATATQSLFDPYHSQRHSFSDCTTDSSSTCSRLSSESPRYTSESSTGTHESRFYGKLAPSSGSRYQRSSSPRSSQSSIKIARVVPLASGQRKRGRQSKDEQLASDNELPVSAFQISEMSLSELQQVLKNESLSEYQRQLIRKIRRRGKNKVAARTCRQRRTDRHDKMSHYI

[8] = growth suppression of beta-catenin-knockout colon cells, dose response, cell-based, HCT116, human colon tumor (AID 1045); assay type: functional;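 note: HCT116 colon tumor cells with beta catenin knocked out; cells exposed to compound for 60 hours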
[9] = growth suppression of PTEN-null colon cells, dose response, cell-based, HCT116 PTEN knockout (AID 1047); assay type: functional;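 note: HCT116 colon tumor cells with PTEN knocked out; cells exposed to compound for 60 hours before readout; potency for loss of cell viability measured by luminescence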
[10] = microbe, parasite or virus in culture; assay type: functional; conditions: Mycobacterium tuberculosis

T2 sequence (P11940 whole entry): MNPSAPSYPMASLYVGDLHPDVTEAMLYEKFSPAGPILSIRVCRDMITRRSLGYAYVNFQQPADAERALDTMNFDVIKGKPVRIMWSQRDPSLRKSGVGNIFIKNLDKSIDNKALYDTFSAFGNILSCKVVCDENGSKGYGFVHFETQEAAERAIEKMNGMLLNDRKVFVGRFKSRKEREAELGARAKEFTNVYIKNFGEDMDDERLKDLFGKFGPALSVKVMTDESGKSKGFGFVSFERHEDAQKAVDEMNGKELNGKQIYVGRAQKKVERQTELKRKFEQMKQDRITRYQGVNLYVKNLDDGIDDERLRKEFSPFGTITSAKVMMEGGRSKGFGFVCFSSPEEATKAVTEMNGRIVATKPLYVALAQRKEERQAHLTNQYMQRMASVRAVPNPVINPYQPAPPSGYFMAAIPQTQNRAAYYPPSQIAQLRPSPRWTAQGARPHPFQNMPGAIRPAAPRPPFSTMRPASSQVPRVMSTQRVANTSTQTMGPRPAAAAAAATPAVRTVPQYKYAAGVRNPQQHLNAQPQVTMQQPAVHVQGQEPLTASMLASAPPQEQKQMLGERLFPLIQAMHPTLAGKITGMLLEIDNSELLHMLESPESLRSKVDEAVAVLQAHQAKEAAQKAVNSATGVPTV

COc1ccc(N2CCC(CN=C(S)Nc3cccc(C)c3)C2)cc1 (stereo not given)
IC50 [1]: 39.3 µM (active)

CC(C)c1ccccc1NC(=O)c1cccc(NC(=O)c2ccccc2)c1
CC50 [2]: 20.3 µM (active)

COc1ccc(CN2CCCN(C)CC2)c(OC)c1C
IC50 [1]: 124 µM (active)

CS(=O)(=O)n1nc(-c2ccccc2)nc1NCc1ccco1
EC50 (cells [3]): > 350 µM (not active)
EC50 (cells [4]): > 350 µM (not active)

CCOC(=O)C1SC2(C(F)(F)F)CC1(O)c1c(C)cc(C)nc1O2 (stereo not given)
IC50 [5]: > 66 µM (inactive)
IC50 [6]: > 66 µM (inactive)

CC1CCN(CCCNC(=O)COc2cc(=O)n(C)c3ccccc23)CC1
IC50 [7]: > 80 µM (inactive)

CC/C(=C\c1ccc(N(C)C)cc1)c1ccncc1
IC50 [1]: 30.2 µM (active)
IC50 (Protein skinhead-1): > 100 µM (inactive)

Nc1ccc(Nc2nc(-c3ccncc3)cs2)cc1
IC50 [1]: 9.36 µM (active)

COC(=O)c1cc(=O)n(Cc2ccc3c(c2)OCO3)/c(=N/c2ccc(F)cc2)s1
EC50 [8]: 26.2 µM (active)
CC50 [2]: 33.2 µM (active)
EC50 [9]: 27.9 µM (active)

COCCNCCOCCOc1ccc(Cl)c(C)c1
IC50 [1]: 138 µM (active)

O=C(Nc1ccc2c(c1)Cc1ccccc1-2)c1cccnc1
CC50 [2]: 20.3 µM (active)

CN(C)c1ccc(N=Nc2ccc(S(N)(=O)=O)cc2)cc1
EC50 (cells [3]): > 350 µM (not active)
EC50 (cells [4]): 3.13 µM (active)

O=C(O)CCC(C(=O)O)N1C(=O)/C(=C2/C(=O)Nc3ccccc32)SC1=S (stereo not given)
IC50 [5]: > 66 µM (inactive)
IC50 [6]: > 66 µM (inactive)

Cc1ccccc1SCC(=O)OCC(=O)Nc1ccc(N(C)C)cc1
IC50 [1]: 66.7 µM (active)

CCc1cccc2c(C(=O)CCl)c[nH]c12
CC50 [10]: 24.4 µM (active)

COc1ccc(CNc2ccc(S(N)(=O)=O)cc2)cc1
IC50 [5]: > 66 µM (inactive)
IC50 [6]: > 66 µM (inactive)

C=CCN1C(=O)/C(=C\c2ccc(Cl)cc2)N=C1SCC(=O)NC1CCCCC1
IC50 [5]: > 66 µM (inactive)
IC50 [6]: > 66 µM (inactive)

CCC(C)c1ccc2oc(-c3ccc(NC(=O)Cn4cnc5c(=O)n(C)c(=O)n(C)c54)cc3)nc2c1 (stereo not given)
EC50 [8]: 8.52 µM (active)
EC50 (cells [3]): > 350 µM (not active)
EC50 (cells [4]): 43.7 µM (active)
EC50 [9]: 9.27 µM (active)
